Results: patent publication US9452154B2, “Methods for treating HCV” (Gilead Sciences, Inc., priority 2010, dated 2016)
Where “and” joins values, the source holds several entries; their conditions need not be identical. Equal entries are not always repeated.

Experiments:
[1] = tested on: GT-1b Huh-lunet cells; assay: Biological Example 4: antiviral combination studies with Compound 5 (MacSynergy II); format: cell-based, HCV; conditions: in combination with Compound 5, 1b replicon cells
[2] = Biological Example 3: cytotoxicity (calcein AM), CC50; format: cell-based; conditions: human, Huh-7 cells carrying a HCV genotype 1a replicon; HCV genotype 1a replicon cells; calcein AM
Method: The HCV replicon assay was a multiplex assay which can assess both cytotoxicity and anti-replicon activity from the same well. The CC50 assay was performed first.
The cytotoxicity effect was determined by calcein AM conversion to fluorescent product. The percent cytotoxicity was calculated by equation 1:
(§1) [formula] where XC is the fluorescence signal from the compound-treated well; MB is the average fluorescence signal from puromycin-treated wells; MD is the average fluorescence signal from DMSO-treated wells. The anti-HCV replication activity was determined by the luminescence signal generated from the reporter renilla luciferase of the HCV replicon. The percent inhibition on HCV replicon was calculated using equation 1, where XC is the luminescence signal from compound-treated well; MB is average luminescence signal from the ITMN-191-treated wells; MD is the average luminescence signal from DMSO-treated wells.
(§2) Both CC50 and EC50 values were obtained using Pipeline Pilot 5.0 software package (Accelrys, San Diego, Calif.) by nonlinear regression fitting of experimental data to equation 2: […]

[3] = Drug-drug interaction: exposure on co-administration with Compound 2
[4] = tested on: HCV 1b replicon system; assay: Biological Example 5: antiviral combination studies with Compound 6 (MacSynergy II); format: cell-based; conditions: in combination with Compound 6
[5] = tested on: Huh-7 cells carrying a HCV genotype 1a replicon; assay: Biological Example 3: cytotoxicity in combination studies (MacSynergy II); conditions: in combination with Compound 4
[6] = tested on: GT1b and GT1a mutant replicons; assay: Biological Example 8: summary of cross resistance of mutant replicons; format: cell-based, HCV; conditions: all single NS3 PI-resistant mutants
Method: GT1b and GT1a replicons carrying Renilla Luciferase reporter were used to generate the mutant replicons. The mutations were introduced into the replicon construct by site-directed mutagenesis and confirmed by sequencing. Mutant replicon RNAs were generated from DNA by in vitro transcription and transfected into Huh-7 Lunet or C1 cells
Compounds were serially diluted 1:3 in 100% DMSO (Sigma). These serial dilutions were added to the cells at a 1:200 dilution to achieve a final concentration of 0.5% DMSO in a total volume of 200 μL. […] EC50 values were calculated using Prism.
For comparison, a fold change of 0-3 is considered “sensitive”, a fold change of 3-10 is considered “low”, a fold change of 10-50 is considered “medium” and a fold change of greater than […] is considered “high”.

[7] = tested on: HCV genotype 1a replicon; assay: Biological Example 3: HCV genotype 1a replicon assay, EC50; format: cell-based; conditions: Hepatitis C virus, 72 h, 3 days, read-out: EC50
Method: The HCV genotype 1a replicon cell line used in this study was described previously. The cells were grown in cell culture medium containing Dulbecco's Modified Eagle Medium (DMEM) with GlutaMAX (Gibco, Carlsbad, Calif., Cat#10569-044), supplemented with 10% FBS (HyClone, Logan, Utah, Cat#SH30071.03), 100 Units/mL Penicillin, 100 μg/mL Streptomycin (Gibco, Carlsbad, Calif., Cat#15140-122), and 0.1 mM non-essential amino acids (Gibco, Carlsbad, Calif., Cat#11140-050). Replicon cells were maintained in 0.5 mg/mL Geneticin (Invitrogen, Carlsbad, Calif., Cat#10131-035) to prevent the loss of HCV replicon. The cells were passaged every 3-4 days before reaching confluency.
as §1, §2

[8] = tested on: HCV genotype 1a replicon; assay: Biological Example 3: antiviral combination studies with Compound 4 (MacSynergy II); conditions: in combination with Compound 4
[9] = tested on: Genotype 1b replicon cells; assay: Biological Example 6: compound concentration required to suppress replicon RNA by 1-1.5 log over 6 days (QRT-PCR); format: cell-based, HCV; conditions: 6 day assay
Method: Flasks were incubated at 37° C., media and compounds were refreshed every two days. After 6 days of incubation the replicon cells were collected for RNA extraction and replicon RNA QRT-PCR analysis.

Fc1ccccc1-c1nc2ccn(Cc3ccc(-c4ccc(C(F)(F)F)cc4C(F)(F)F)nn3)cc-2n1 [Compound 1, 5-((6-(2,4-bis(trifluoromethyl)phenyl)pyridazin-3-yl)methyl)-2-(2-fluorophenyl)-5H-imidazo[4,5-c]pyridine]
Antagonism Volume [1]: 0 ± 0 nM^2 | Synergy Volume [1]: 70 ± 26 nM^2 | CC50 at 3 days [2]: > 44.4 µM | increase of exposure when combined with Compound 2 [3]: 2-3 × | Antagonism Volume [4]: −17 ± 0.7 nM^2 | Interaction [4]: Minor Synergy | Synergy Volume [4]: 34 nM^2 and 34 ± 9.9 nM^2 | Antagonism Volume (cytotoxicity) [5]: 0 ± 1 nM^2% | Interaction (cytotoxicity) [5]: Additivity (Additivity: ≦25 and >−25 nM^2%) | Synergy Volume (cytotoxicity) [5]: 13 ± 11 nM^2% | susceptibility of mutants [6]: full susceptibility | EC50 [7]: 19 ± 8 nM | Antagonism Volume [8]: −1 ± 2 nM^2% | Synergy Volume [8]: 34 ± 26 nM^2% | Compound concentration able to induce replicon RNA 1-1.5 log drop [9]: 10 nM
